For 34 molecules, Actual class and melting point results are on record in patent publication US9290427B2, “Anti-invasive compounds” (Universiteit Gent, priority 2012, dated 2016).

Series [1] deals with MCF-7/6 mammary carcinoma cells. Also noted: unit not given here. The conditions noted are these: training set compounds 1-34, Indo-Belgian screening program; class = log cmin, lowest concentration with invasion grade I or II; cited from earlier work.

As for `COc1cc(OC)c(C(=O)/C=C/c2ccccc2)c(O)c1CC=C(C)C` [Compound 11, (2E)-3-phenyl-1-(2′-hydroxy-4′,6′-dimethoxy-3′-(3-methylbut-2-enyl)phenyl)propenone], the Actual class in series [1] is 2 (about 100).

Regarding `COc1cc(OC)c(C(=O)/C=C/c2ccc(C(C)C)cc2)cc1CC=C(C)C` [Compound 14, (2E)-3-(4-(1-methylethyl)phenyl)-1-(2′,4′-dimethoxy-5′-(3-methylbut-2-enyl)phenyl)propenone], in series [1], the Actual class is 1 (about 10).

For the molecule `C=CCOc1c(OC)cc(O)c(C(=O)/C=C/c2ccc(O)cc2)c1OC` [Compound 28, (2E)-3-(4-hydroxyphenyl)-1-(6′-hydroxy-2′,4′-dimethoxy-3′-(2-propenyloxy)phenyl)propenone], the Actual class in series [1] is given as 1 (about 10).

For the molecule `CC1(C)CCc2c(O)c(C(=O)/C=C/c3ccc(Oc4ccccc4)cc3)c3c(c2O1)CCC(C)(C)O3` [Compound 6, (2E)-1-(5-Hydroxy-2,2,8,8-tetramethyl-3,4,9,10-tetrahydro-2H,8H-pyrano[2,3-f]chromen-6-yl)-3-(4-phenoxypheny)propenone], in series [1], the Actual class was 3 (>100).

On to `COc1cc(OC)c(C(=O)/C=C/c2ccccc2)cc1CC=C(C)C` [Compound 18, (2E)-3-phenyl-1-(2′,4′-dimethoxy-5′-(3-methylbut-2-enyl)phenyl)propenone], for which the Actual class in series [1] is 0 (about 1).

With `COc1ccc(C(=O)/C=C/c2ccc(C)cc2)cc1OC` [Compound 16, (2E)-3-(4-methylphenyl)-1-(3′,4′-dimethoxyphenyl)propenone], the Actual class in series [1] was 2 (about 100).

Consider `COc1cc(O)c(CC=C(C)C)c(O)c1C(=O)/C=C/c1ccc(O)cc1` [Compound 27, (2E)-3-(4-hydroxyphenyl)-1-(2′,4′-dihydroxy-6′-methoxy-3′-(3-methylbut-2-enyl)phenyl)propenone], for which the Actual class in series [1] is 0 (about 1).

Consider `COc1cccc(/C=C/C(=O)c2ccc3c(c2)OCO3)c1OC` [Compound 26, (2E)-1-Benzo[1,3]dioxol-5-yl-3-(2,3-dimethoxyphenyl)propenone], for which the Actual class in series [1] was 1 (about 10).

For the molecule `COc1cc(OC)c(C(=O)/C=C/c2ccc3c(c2CCc2ccccc2)CCC(C)(C)O3)cc1CC=C(C)C` [Compound 5, (2E)-1-[2,4-Dimethoxy-5-(3-methylbut-2-enyl)phenyl]-3-(2,2-dimethyl-5-phenethylchroman-6-yl)propenone], the Actual class in series [1] is 1 (about 10).

Broadly, the melting point is the temperature, or range, at which the solid turns liquid. Consider `Fc1ccc(/C=C/c2ccc(F)cc2)cc1` [Compound 90, (E)-4,4′-Difluorostilbene], for which the melting point lay in the range of 116 to 117 °C.

Take `COc1cc(O)c(C(=O)/C=C/c2ccc(Oc3ccccc3)cc2)cc1C(c1ccccc1)c1ccccc1` [Compound 3, (2E)-1-(5-Benzhydryl-2-hydroxy-4-methoxyphenyl)-3-(4-phenoxyphenyl)propenone]: the Actual class in series [1] is recorded as 3 (>100).

Turning to `COc1ccc(/C=C/C(=O)c2cc3c(cc2O)OC(C)(C)C(O)C3)c(OC)c1` (stereo not shown) [Compound 12, (2E)-1-(3,7-Dihydroxy-2,2-dimethylchroman-6-yl)-3-(2,4-dimethoxy-phenyl)propenone], the Actual class in series [1] is 1 (about 10).

On to `COc1cc(OC)c(C(=O)/C=C/c2ccccc2)c(OC)c1CC=C(C)C` [Compound 15, (2E)-3-phenyl-1-(2′,4′,6′-trimethoxy-3′-(3-methylbut-2-enyl)phenyl)propenone], for which, in series [1], the Actual class is given as 3 (>100).

For the molecule `CC(C)c1ccc(/C=C/C(=O)c2c(O)c3c(c4c2OC(C)(C)CC4)OC(C)(C)CC3)cc1` [Compound 8, (2E)-1-(5-Hydroxy-2,2,8,8-tetramethyl-3,4,9,10-tetrahydro-2H,8H-pyrano[2,3-f]chromen-6-yl)-3-(4-isopropylphenyl)propenone], in series [1], the Actual class is reported as 3 (>100).

Regarding `COc1ccc(/C=C/C(=O)c2ccc3c(c2)OCO3)c(OC)c1` [Compound 22, (2E)-1-Benzo[1,3]dioxol-5-yl-3-(2,4-dimethoxyphenyl)propenone], the Actual class in series [1] was 2 (about 100).

For the molecule `COc1ccc(/C=C/C(=O)c2cc3c(cc2O)OC(C)(C)CC3)cc1OC` [Compound 23, (2E)-3-(3,4-Dimethoxyphenyl)-1-(7-hydroxy-2,2-dimethylchroman-6-yl)propenone], the Actual class in series [1] is on record as 2 (about 100).

Turning to `COc1ccc(/C=C/C(=O)c2cc3c(cc2OC)OC(C)(C)C(O)C3)c(OC)c1` (stereo not shown) [Compound 29, (2E)-3-(2,4-Dimethoxyphenyl)-1-(3-hydroxy-7-methoxy-2,2-dimethylchroman-6-yl)-propenone], the Actual class in series [1] is on record as 3 (>100).

Take `COc1cc(OC)c(C(=O)/C=C/c2ccccc2)c(O)c1OC` [Compound 17, (2E)-3-phenyl-1-(2′-hydroxy-3′,4′,6′-trimethoxyphenyl)propenone]: the Actual class in series [1] is 2 (about 100).

Consider `COc1cc(/C=C/C(=O)c2ccc(OCc3ccccc3)c(OCc3ccccc3)c2)ccc1OCc1ccccc1` [Compound 13, (2E)-3-(4-Benzyloxy-3-methoxyphenyl)-1-(3,4-bis-benzyloxyphenyl)propenone], for which the Actual class in series [1] is 1 (about 10).

Regarding `COc1cc(O)c(C(=O)/C=C/c2ccccc2)c(OC)c1OC` [Compound 21, (2E)-3-phenyl-1-(6′-hydroxy-2′,3′,4′-trimethoxyphenyl)propenone], in series [1], the Actual class is given as 0 (about 1).

As to `CCOc1ccc(/C=C/C(=O)c2cc(C(c3ccccc3)c3ccccc3)c(OC)cc2O)cc1` [Compound 2, (2E)-1-(5-Benzhydryl-2-hydroxy-4-methoxyphenyl)-3-(4-ethoxyphenyl)propenone], the Actual class in series [1] is 3 (>100).

With `COc1cccc(/C=C/C(=O)c2cc3c(cc2O)OC(C)(C)C(O)C3)c1OC` (stereo not shown) [Compound 9, (2E)-1-(3,7-Dihydroxy-2,2-dimethylchroman-6-yl)-3-(2,3-dimethoxy-phenyl)propenone], the Actual class in series [1] is 1 (about 10).

On to `Fc1ccc(/C=C/c2cccc(F)c2)cc1` [Compound 98, (E)-3,4′-Difluorostilbene], for which the melting point was 92 to 93 °C.

Take `COc1ccc(/C=C/C(=O)c2cc(CC=C(C)C)c(OC)cc2OC)c(OC)c1` [Compound 33, (2E)-3-(2,4-dimethoxyphenyl)-1-(2′,4′-dimethoxy-5′-(3-methylbut-2-enyl)phenyl)propenone]: the Actual class in series [1] was 3 (>100).

For the molecule `COc1ccc(/C=C/C(=O)c2cc(C(c3ccccc3)c3ccccc3)c(OC)cc2O)cc1` [Compound 1, (2E)-1-(5-Benzhydryl-2-hydroxy-4-methoxyphenyl)-3-(4-methoxyphenyl)propenone], the Actual class in series [1] is recorded as 3 (>100).

As to `COc1cc(OC)c(C(=O)/C=C/c2cccc(Oc3ccccc3)c2)cc1CC=C(C)C` [Compound 34, (2E)-3-(3-phenoxyphenyl)-1-(2′,4′-dimethoxy-5′-(3-methylbut-2-enyl)phenyl)propenone], in series [1], the Actual class was 3 (>100).

As to `COc1cc(OC)c(C(=O)/C=C/c2ccccc2)c2c1CC(O)C(C)(C)O2` (stereo not shown) [Compound 24, (2E)-1-(3-Hydroxy-5,7-dimethoxy-2,2-dimethylchroman-8-yl)-3-phenylpropenone], in series [1], the Actual class was 0 (about 1).

Turning to `COc1ccc(C(=O)/C=C/c2cccc(Oc3ccccc3)c2)cc1OC` [Compound 32, (2E)-3-(3-phenoxyphenyl)-1-(3′,4′-dimethoxyphenyl)propenone], the Actual class in series [1] is 3 (>100).

Consider `COc1ccc(/C=C/C(=O)c2cc3c(cc2O)OC(C)(C)C=C3)c(OC)c1` [Compound 30, (2E)-3-(2,4-Dimethoxyphenyl)-1-(7-hydroxy-2,2-dimethyl-2H-chromen-6-yl)propenone], for which, in series [1], the Actual class is 3 (>100).

Regarding `COc1cc(OC)c(C(=O)/C=C/c2ccc([N+](=O)[O-])cc2)cc1CC=C(C)C` [Compound 10, (2E)-3-(4-nitrophenyl)-1-(2′,4′-dimethoxy-5′-(3-methylbut-2-enyl)phenyl)propenone], the Actual class in series [1] was 3 (>100).

`COc1cccc(/C=C/c2ccc(Cl)cc2)c1` [Compound 99, (E)-4′-Chloro-3-methoxystilbene]: the melting point was in the range of 71 to 72 °C.

Regarding `COc1ccc(C(=O)/C=C/c2ccc(C(C)C)cc2)cc1OC` [Compound 31, (2E)-3-(4-(1-methylethyl)phenyl)-1-(3′,4′-dimethoxyphenyl)propenone], the Actual class in series [1] is given as 3 (>100).

Regarding `COc1cc(OC)c(C(=O)/C=C/c2ccc(OC)c(OC)c2)cc1CC=C(C)C` [Compound 19, (2E)-3-(3,4-dimethoxyphenyl)-1-(2′,4′-dimethoxy-5′-(3-methylbut-2-enyl)phenyl)propenone], the Actual class in series [1] is reported as 1 (about 10).

On to `Cc1ccc(/C=C/C(=O)c2c(O)c3c(c4c2OC(C)(C)CC4)OC(C)(C)CC3)cc1` [Compound 4, (2E)-1-(5-Hydroxy-2,2,8,8-tetramethyl-3,4,9,10-tetrahydro-2H,8H-pyrano[2,3-f]chromen-6-yl)-3-p-tolyl-propenone], for which, in series [1], the Actual class is reported as 3 (>100).
